Source: publication PMC11277489, “Novel Piperazine Derivatives of Vindoline as Anticancer Agents” (International Journal of Molecular Sciences, 2024)
Where two headings read alike, the source gives them in different places.

Tests used:
[1] = tested on: HOP-92; assay: NCI60 one-dose screen (10 μM), Non-small Cell Lung Cancer; format: cell-based; details: Homo sapiens
[2] = tested on: NCI-H226; assay: as above; format: cell-based; details: Homo sapiens
[3] = tested on: KM12; assay: NCI60 one-dose screen (10 μM), Colon Cancer; format: cell-based, human; details: Homo sapiens
[4] = tested on: SF-295; assay: NCI60 one-dose screen (10 μM), CNS Cancer; format: cell-based; details: Homo sapiens
[5] = tested on: SNB-19; assay: NCI60 one-dose screen (10 μM), CNS Cancer; format: cell-based; details: Homo sapiens
[6] = tested on: LOX IMVI; assay: NCI60 one-dose screen (10 μM), Melanoma; format: cell-based, human; details: Homo sapiens, LOX IMVI, read-out: Growth percent rate
[7] = tested on: MALME-3M; assay: NCI60 one-dose screen (10 μM), Melanoma; format: cell-based; details: Homo sapiens, read-out: Growth percent rate
[8] = tested on: OVCAR-5; assay: NCI60 one-dose screen (10 μM), Ovarian Cancer; format: cell-based; details: Homo sapiens
[9] = tested on: NCI/ADR-RES; assay: NCI60 one-dose screen (10 μM), Ovarian Cancer; format: cell-based; details: Homo sapiens, read-out: Growth percent rate
[10] = tested on: SK-OV-3; assay: NCI60 one-dose screen (10 μM), Ovarian Cancer; format: cell-based; details: Homo sapiens
[11] = tested on: TK-10; assay: NCI60 one-dose screen (10 μM), Renal Cancer; format: cell-based; details: Homo sapiens
[12] = tested on: UO-31; assay: NCI60 one-dose screen (10 μM), Renal Cancer; format: cell-based; details: Homo sapiens
[13] = tested on: PC-3; assay: NCI60 one-dose screen (10 μM), Prostate Cancer; format: cell-based; details: Homo sapiens
[14] = tested on: MDA-MB-231/ATCC; assay: NCI60 one-dose screen (10 μM), Breast Cancer; format: cell-based, human; details: Homo sapiens
[15] = tested on: BT-549; assay: NCI60 one-dose screen (10 μM), Breast Cancer; format: cell-based; details: Homo sapiens
[16] = tested on: MDA-MB-468; assay: NCI60 one-dose screen (10 μM), Breast Cancer; format: cell-based; details: Homo sapiens
[17] = tested on: SR; assay: NCI60 one-dose screen (10 μM), Leukemia; format: cell-based; details: Homo sapiens, read-out: Growth percent rate
[18] = tested on: UACC-62; assay: NCI60 one-dose screen (10 μM), Melanoma; format: cell-based; details: Homo sapiens
[19] = tested on: T-47D; assay: NCI60 one-dose screen (10 μM), Breast Cancer; format: cell-based; details: Homo sapiens, T47D, read-out: Growth percent rate
[20] = HOP-92, read-out: Growth percent rate
[21] = NCI-H226, read-out: Growth percent rate
[22] = KM12, read-out: Growth percent rate
[23] = SF-295, read-out: Growth percent rate
[24] = SNB-19, read-out: Growth percent rate
[25] = OVCAR-5, read-out: Growth percent rate
[26] = SK-OV-3, read-out: Growth percent rate
[27] = TK-10, read-out: Growth percent rate
[28] = UO-31, read-out: Growth percent rate
[29] = PC-3, read-out: Growth percent rate
[30] = MDA-MB-231, read-out: Growth percent rate
[31] = BT-549, read-out: Growth percent rate
[32] = MDA-MB-468, read-out: Growth percent rate
[33] = UACC-62, read-out: Growth percent rate
[34] = 10 μM, NCI-H226, Non-small Cell Lung Cancer, read-out: Growth percent rate
[35] = 10 μM, KM12, Colon Cancer, read-out: Growth percent rate
[36] = 10 μM, SF-295, CNS Cancer, read-out: Growth percent rate
[37] = 10 μM, SNB-19, CNS Cancer, read-out: Growth percent rate
[38] = 10 μM, UACC-62, Melanoma, read-out: Growth percent rate
[39] = 10 μM, OVCAR-5, Ovarian Cancer, read-out: Growth percent rate
[40] = 10 μM, SK-OV-3, Ovarian Cancer, read-out: Growth percent rate
[41] = 10 μM, TK-10, Renal Cancer, read-out: Growth percent rate
[42] = 10 μM, UO-31, Renal Cancer, read-out: Growth percent rate
[43] = 10 μM, MDA-MB-231/ATCC, Breast Cancer, read-out: Growth percent rate
[44] = 10 μM, BT-549, Breast Cancer, read-out: Growth percent rate
[45] = 10 μM, MDA-MB-468, Breast Cancer, read-out: Growth percent rate
[46] = 10 μM, HOP-92, Non-small Cell Lung Cancer, read-out: Growth percent rate
[47] = 10 μM, PC-3, Prostate Cancer, read-out: Growth percent rate

Row | SMILES | activity at 10 µM [2, 21] [%] | activity at 10 µM [3, 22] [%] | activity at 10 µM [4, 23] [%] | activity at 10 µM [5, 24] [%] | activity at 10 µM [6] [%] | activity at 10 µM ([7]; Malme-3M) [%] | activity at 10 µM [8, 25] [%] | activity at 10 µM [2, 34] [%] | activity at 10 µM [3, 35] [%] | activity at 10 µM [4, 36] [%] | activity at 10 µM [5, 37] [%] | activity at 10 µM ([6]; 10 μM, Melanoma) [%] | activity at 10 µM ([7]; 10 μM, MALME-3M, Melanoma) [%] | activity at 10 µM [18, 38] [%] | activity at 10 µM ([9]; 10 μM, Ovarian Cancer) [%] | activity at 10 µM [10, 40] [%] | activity at 10 µM [11, 41] [%] | activity at 10 µM [15, 44] [%] | activity at 10 µM [16, 45] [%] | activity at 10 µM [13, 47] [%] | further results
1 | CCC12C=CCN3CC[C@@]4(c5ccc(OC)cc5N(C)[C@H]4[C@@](O)(C(=O)OC)[C@@H]1OC(C)=O)[C@@H]32 (some centres unmarked) [Compound 1, vindoline] | 92.3 | 108 | 103 | 102 | 95.3 | 147 | 107 | – | – | – | – | – | – | – | – | – | – | – | – | – | activity at 10 µM [1, 20]: 109%; activity at 10 µM [9]: 107%; activity at 10 µM [10, 26]: 102%; activity at 10 µM [11, 27]: 97.5%; activity at 10 µM [12, 28]: 84.6%; activity at 10 µM [13, 29]: 98.6%; activity at 10 µM [14, 30]: 113%; activity at 10 µM [15, 31]: 106%; activity at 10 µM [16, 32]: 134%
2 | CCC12C=CCN3CCC4(c5cc(NC(=O)CN6CCN(Cc7ccc(C(F)(F)F)cc7)CC6)c(OC)cc5N(C)C4C(O)(C(=O)OC)C1OC(C)=O)C32 (centres unmarked) [Compound 18] | 67.7 | 83 | 75.4 | 47.4 | 58.4 | 73.3 | 108 | – | – | – | – | – | – | – | – | – | – | – | – | – | activity at 10 µM [17]: 48.2%; activity at 10 µM [18, 33]: 74.4%; activity at 10 µM [9]: 61.9%; activity at 10 µM [10, 26]: 87%; activity at 10 µM [11, 27]: 81.5%; activity at 10 µM [12, 28]: 50%; activity at 10 µM [14, 30]: 43.7%; activity at 10 µM [15, 31]: 47%; activity at 10 µM [19]: 51.4%; activity at 10 µM [16, 32]: 39.8%
3 | CCC12C=CCN3CCC4(c5cc(NC(=O)CN6CCN(C(=O)c7ccco7)CC6)c(OC)cc5N(C)C4C(O)(C(=O)OC)C1OC(C)=O)C32 (centres unmarked) [Compound 21] | – | – | – | – | – | – | – | 111 | 99.8 | 110 | 96.2 | 98.5 | 104 | 103 | 112 | 113 | 109 | 117 | 120 | – | activity at 10 µM ([17]; 10 μM, Leukemia): 97.2%; activity at 10 µM [8, 39]: 121%; activity at 10 µM [12, 42]: 89.3%; activity at 10 µM [14, 43]: 98.8%; activity at 10 µM ([19]; 10 μM, T-47D, Breast Cancer): 111%
4 | CCC12C=CCN3CCC4(c5ccc(OC)cc5N(C)C4C(O)(C(=O)OC)C1OC(=O)CCCN1CCN(C)CC1)C32 (centres unmarked) [Compound 3] | – | – | – | – | – | – | – | – | 85.3 | 96.2 | 90.6 | 84 | 77.2 | 83.2 | 94.7 | 93.3 | 99 | – | 70.5 | 92.9 | activity at 10 µM [1, 46]: 80.9%; activity at 10 µM [8, 39]: 96.4%; activity at 10 µM [12, 42]: 75.8%; activity at 10 µM [14, 43]: 80.4%; activity at 10 µM ([19]; 10 μM, T-47D, Breast Cancer): 90.9%
5 | CCC12C=CCN3CCC4(c5cc(NC(=O)CN6CCN(C)CC6)c(OC)cc5N(C)C4C(O)(C(=O)OC)C1OC(C)=O)C32 (centres unmarked) [Compound 16] | – | – | – | – | – | – | – | 101 | 112 | 98.8 | 105 | 95.2 | 97.5 | 98.9 | 104 | 113 | 103 | 113 | – | 93.1 | activity at 10 µM ([17]; 10 μM, Leukemia): 93.8%; activity at 10 µM [8, 39]: 102%; activity at 10 µM [12, 42]: 89.4%; activity at 10 µM [14, 43]: 102%; activity at 10 µM ([19]; 10 μM, T-47D, Breast Cancer): 104%
6 | CCC12C=CCN3CCC4(c5ccc(OC)cc5N(C)C4C(O)(C(=O)OC)C1OC(=O)CCC(=O)O)C32 (centres unmarked) [Compound 15, 17-(O-3-carboxypropanoyl)vindoline] | – | – | – | – | – | – | – | 66.6 | 82.8 | 113 | 94.9 | 107 | 90.3 | 92.4 | 94.6 | 92.3 | 90.8 | 80.5 | 98.7 | 87.7 | activity at 10 µM [1, 46]: 98.8%
7 | CCC12C=CCN3CCC4(c5cc(NC(=O)CCl)c(OC)cc5N(C)C4C(O)(C(=O)OC)C1OC(C)=O)C32 (centres unmarked) [Compound 12, 10-chloroacetamidovindoline] | – | – | – | – | – | – | – | 43.5 | 41.5 | 52.2 | 23.1 | 11.5 | -14.1 | 22.1 | 79.4 | 33.9 | 24.8 | 14.7 | -40.8 | 24.5 | activity at 10 µM [1, 46]: 34.3%
8 | CC[C@]12C=CCN3CC[C@@]4(c5ccc(OC)cc5N(C)[C@H]4[C@@](O)(C(=O)OC)[C@@H]1OC(=O)CCC(=O)N1CCN(C)CC1)[C@@H]32 [Compound 27] | – | – | – | – | – | – | – | 80.4 | 100 | 97.9 | 108 | 93 | 112 | 112 | 107 | 106 | 91.9 | 88.6 | 124 | 101 | activity at 10 µM [1, 46]: 105%
9 | CCC12C=CCN3CCC4(c5cc(NC(=O)CN6CCN(Cc7ccc(F)cc7)CC6)c(OC)cc5N(C)C4C(O)(C(=O)OC)C1OC(C)=O)C32 (centres unmarked) [Compound 19] | 97.8 | 115 | 99.8 | 97.2 | 99.1 | 102 | 111 | – | – | – | – | – | – | – | – | – | – | – | – | – | activity at 10 µM [17]: 75.3%; activity at 10 µM [18, 33]: 96.9%; activity at 10 µM [9]: 97.3%; activity at 10 µM [10, 26]: 108%; activity at 10 µM [11, 27]: 107%; activity at 10 µM [12, 28]: 89.1%; activity at 10 µM [13, 29]: 73.6%; activity at 10 µM [14, 30]: 102%; activity at 10 µM [15, 31]: 101%; activity at 10 µM [19]: 93%
10 | CC[C@]12C=CCN3CC[C@@]4(c5ccc(OC)cc5N(C)[C@H]4[C@@](O)(C(=O)OC)[C@@H]1OC(=O)CCCN1CCN(C(=O)c4ccco4)CC1)[C@@H]32 [Compound 26] | – | – | – | – | – | – | – | 94.9 | 108 | 89.5 | 94.4 | 96.6 | 102 | 86.4 | 91.8 | 108 | 104 | 96.8 | – | 80.5 | activity at 10 µM ([17]; 10 μM, Leukemia): 75.4%; activity at 10 µM [8, 39]: 112%; activity at 10 µM [12, 42]: 80.6%; activity at 10 µM [14, 43]: 102%; activity at 10 µM ([19]; 10 μM, T-47D, Breast Cancer): 82.2%
11 | CCC12C=CCN3CCC4(c5ccc(OC)cc5N(C)C4C(O)(C(=O)OC)C1O)C32 (centres unmarked) [Compound 13, 17-desacetylvindoline] | 88.5 | 103 | 101 | 97.4 | 97.5 | 90.8 | 91.2 | – | – | – | – | – | – | – | – | – | – | – | – | – | activity at 10 µM [1, 20]: 88.6%; activity at 10 µM [18, 33]: 90.7%; activity at 10 µM [9]: 99.4%; activity at 10 µM [11, 27]: 93.3%; activity at 10 µM [12, 28]: 87.6%; activity at 10 µM [13, 29]: 96.5%; activity at 10 µM [14, 30]: 101%; activity at 10 µM [15, 31]: 101%; activity at 10 µM [19]: 108%; activity at 10 µM [16, 32]: 92.2%
